Source: US10906878B2, “Kinase inhibitors for the treatment of disease” (Dana-Farber Cancer Institute, Inc., priority 2013, dated 2021)

What was measured:
[1] = biological target: EGFR Del/T790M Ba/F3 cells (Homo sapiens, UniProt P00533, T790M, cells depend on it, form not given); assay: Ba/F3 cell growth inhibition (MTS assay), EGFR Del/T790M; assay type: cell-based; conditions: for EGFR activity (% Control, 100 nM drug) Del/T790M: Table G
EGFR L858R Ba/F3 cells = EGFR L858R Ba/F3 cells (Homo sapiens (Human), UniProt P00533, L858R); assay: Ba/F3 cell growth inhibition (MTS assay), EGFR L858R; assay type: cell-based; conditions: for EGFR activity (% Control, 100 nM drug) L858R: Table G
KIF5B/Ret_V804M = assay: Ba/F3 cell growth inhibition (MTS assay), KIF5B/Ret_V804M; assay type: cell-based
Experimental: (§1) Growth and inhibition of growth was assessed by MTS assay. This assay, a colorimetric method for determining the number of viable cells, is based on the bioreduction of 3-(4,5-dimethylthiazol-2-yl)-5-(3-carboxymethoxyphenyl)-2-(4-sulfophenyl)-2H-tetrazolium (MTS) by cells to a formazan product that is soluble in cell culture medium, can be detected spectrophotometrically and was performed according to the manufacturer's recommended conditions. Ba/F3 cells were exposed to treatment for 72 hours and the number of cells used per experiment determined empirically to assure linear growth kinetics over that time period. All experimental points were set up in six to twelve wells and all experiments were repeated at least three times. […] The curves were fitted using a non-linear regression model with a sigmoidal dose response.

ITK = ITK (Homo sapiens (Human), UniProt Q08881); assay: Kinase inhibition ITK; assay type: biochemical
Sequence of ITK (Q08881 whole entry): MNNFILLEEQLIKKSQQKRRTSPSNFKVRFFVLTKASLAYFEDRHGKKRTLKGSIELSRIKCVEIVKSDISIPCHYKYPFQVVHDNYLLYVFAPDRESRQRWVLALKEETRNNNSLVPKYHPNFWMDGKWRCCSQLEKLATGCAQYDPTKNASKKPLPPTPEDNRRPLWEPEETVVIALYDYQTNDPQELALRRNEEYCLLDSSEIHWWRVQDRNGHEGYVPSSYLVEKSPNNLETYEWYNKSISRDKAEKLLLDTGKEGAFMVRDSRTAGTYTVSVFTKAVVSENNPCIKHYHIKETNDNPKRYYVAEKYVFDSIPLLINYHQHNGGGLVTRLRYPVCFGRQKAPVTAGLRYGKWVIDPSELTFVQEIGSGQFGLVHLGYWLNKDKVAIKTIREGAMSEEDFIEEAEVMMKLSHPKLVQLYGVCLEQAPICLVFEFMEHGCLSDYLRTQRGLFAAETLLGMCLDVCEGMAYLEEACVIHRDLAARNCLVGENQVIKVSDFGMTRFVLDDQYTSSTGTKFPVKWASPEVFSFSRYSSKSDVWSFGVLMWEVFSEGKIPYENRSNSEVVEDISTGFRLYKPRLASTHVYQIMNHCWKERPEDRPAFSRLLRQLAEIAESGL

[2] = biological target: EGFR Del/T790M/L718Q Ba/F3 cells (Homo sapiens, UniProt P00533, L718Q/T790M, cells depend on it, form not given); assay type: cell-based; conditions: 1.0 μM drug
Source text: The specific cDNAs encoding the oncogenic alterations (EGFR: Del 19, L858R, L718Q, L844V, Del/T790M, L858R/T790M, Del 19/L718Q, Del 19/L844V, Del 19/T790M/L718Q and L858R/T790M/L718Q; FGFR: TEL-FGFR1, TEL-FGFR2, TEL-FGFR1 V561M, TEL-FGFR2 V561M; ALK: EML4-ALK; ROS1: CD74-ROS1) were cloned into the pDNA-Dual (BD Biosciences) vector using standard molecular biology techniques. Mutations were introduced using site-directed mutagenesis (Agilent) with mutant specific primers according to the manufacturer's instructions. All constructs were confirmed by DNA sequencing. The constructs were introduced into Ba/F3 cells using retroviral infection. Polyclonal cell lines were established by puromycin selection and subsequently cultured in the absence of interleukin-3 (IL-3). Uninfected Ba/F3 cells or cell lines expressing green fluorescent protein (GFP) were used as controls.
as §1

BLK = BLK (Homo sapiens (Human), UniProt P51451); assay: Kinase inhibition BLK; assay type: biochemical
TXK = TXK (Homo sapiens (Human), UniProt P42681); assay: Kinase inhibition TXK; assay type: biochemical
TEC = TEC (Homo sapiens (Human), UniProt P42680); assay: Kinase inhibition TEC; assay type: biochemical
Sequence of TEC (P42680 whole entry): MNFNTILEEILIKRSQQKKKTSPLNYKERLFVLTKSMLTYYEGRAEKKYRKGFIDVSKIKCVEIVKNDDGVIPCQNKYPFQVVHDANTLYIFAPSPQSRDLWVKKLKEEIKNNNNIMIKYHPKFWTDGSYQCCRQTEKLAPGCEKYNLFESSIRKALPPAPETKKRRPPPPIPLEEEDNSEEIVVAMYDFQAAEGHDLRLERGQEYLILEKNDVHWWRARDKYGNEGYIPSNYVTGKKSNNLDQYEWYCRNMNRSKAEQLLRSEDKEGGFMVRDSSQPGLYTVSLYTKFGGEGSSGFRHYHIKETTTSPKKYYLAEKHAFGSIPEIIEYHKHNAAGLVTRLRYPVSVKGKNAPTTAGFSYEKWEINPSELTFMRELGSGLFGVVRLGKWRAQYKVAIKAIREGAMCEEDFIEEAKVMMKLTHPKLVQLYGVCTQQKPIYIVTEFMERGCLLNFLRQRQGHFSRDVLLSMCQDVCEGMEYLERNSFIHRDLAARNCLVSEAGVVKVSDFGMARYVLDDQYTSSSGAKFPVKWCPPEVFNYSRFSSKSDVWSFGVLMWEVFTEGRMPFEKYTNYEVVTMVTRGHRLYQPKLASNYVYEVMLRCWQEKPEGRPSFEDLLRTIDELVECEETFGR

EGFR Del Ba/F3 cells = EGFR Del Ba/F3 cells (Homo sapiens, UniProt P00533, cells depend on it, form not given); assay: Ba/F3 cell growth inhibition (MTS assay), EGFR Del; assay type: cell-based; conditions: for EGFR activity (% Control, 100 nM drug) Del: Table G
[3] = biological target: EGFR L858R/T790M Ba/F3 cells (Homo sapiens (Human), UniProt P00533, L858R/T790M); assay: Ba/F3 cell growth inhibition (MTS assay), EGFR L858R/T790M; assay type: cell-based; conditions: for EGFR activity (% Control, 100 nM drug) L858R/T790M: Table G
[4] = biological target: EGFR L858R/T790M/L718Q Ba/F3 cells (Homo sapiens (Human), UniProt P00533, L718Q/L858R/T790M); assay: Ba/F3 cell growth inhibition (MTS assay), EGFR L858R/T790M/L718Q; assay type: cell-based; conditions: Assay 1; T/L/L718Q; read-out: EGFR Ba/F3 cells IC 50 (nM) Assay 1 T/L/L718Q
[5] = biological target: EGFR Wild type vIII Ba/F3 cells (Homo sapiens (Human), UniProt P00533, DELINS30-297G); assay: Ba/F3 cell growth inhibition (MTS assay), EGFR Wild type vIII; assay type: cell-based; conditions: Assay 1, read-out: EGFR Ba/F3 cells IC 50 (nM) Assay 1 Wild type vIII
[6] = Microsome Stability Mouse; assay type: in vitro ADME; conditions: mouse microsomes
BTK = BTK (Homo sapiens (Human), UniProt Q06187); assay: BTK kinase assay (LanthaScreen Kinase assay); assay type: biochemical
Experimental: BTK kinase assay was conducted using LanthaScreen® Kinase assay.
1. Optimization of kinase concentration required to determine ATP Km,app. The assay was first performed at a high concentration of ATP (1 mM) against a dilution series of kinase in order to determine the amount of kinase required to elicit an approximately 80% change between the minimum and maximum TR-FRET emission ratios (the EC80 value).
2. Determination of ATP Km,app. Using the concentration of enzyme determined in step 1, the assay was then performed against a dilution series of ATP in order to determine the amount of ATP required to elicit a 50% change between the minimum and maximum TR-FRET emission ratios (the EC50 value). This concentration of ATP was referred to as the “apparent” Km value for ATP, or the ATP Km,app.
3. Optimization of kinase concentration required for assay at ATP Km,app. Using the ATP Km,app concentration of ATP determined in step 2, the kinase titration was repeated in order to determine the concentration of kinase required to elicit an approximately 80% change between the minimum and maximum TR-FRET emission ratios at the ATP Km,app concentration of ATP (the EC80 value). This was the concentration of kinase that will be used in an assay to determine an IC50 value for a compound of the invention.
Using the ATP and kinase concentrations determined above, the reaction was then performed in the presence of a dilution series of various compounds of the invention, and the amount of compounds required to elicit a 50% change in TR-FRET ratio (the IC50) was determined. The experiments can be performed over two days, with steps one and two being performed on the first day, and step three and the inhibitor IC50 determination(s) being performed on the second day.

Ba/F3 TEL-ABL = Ba/F3 TEL-ABL (Homo sapiens, UniProt P00519); assay: Inhibition of Ba/F3 TEL-ABL cell line; assay type: cell-based; conditions: read-out: IC50 (μM) Ba/F3 TEL-ABL
Sequence of Ba/F3 TEL-ABL (P00519 whole entry, looked up, change not shown): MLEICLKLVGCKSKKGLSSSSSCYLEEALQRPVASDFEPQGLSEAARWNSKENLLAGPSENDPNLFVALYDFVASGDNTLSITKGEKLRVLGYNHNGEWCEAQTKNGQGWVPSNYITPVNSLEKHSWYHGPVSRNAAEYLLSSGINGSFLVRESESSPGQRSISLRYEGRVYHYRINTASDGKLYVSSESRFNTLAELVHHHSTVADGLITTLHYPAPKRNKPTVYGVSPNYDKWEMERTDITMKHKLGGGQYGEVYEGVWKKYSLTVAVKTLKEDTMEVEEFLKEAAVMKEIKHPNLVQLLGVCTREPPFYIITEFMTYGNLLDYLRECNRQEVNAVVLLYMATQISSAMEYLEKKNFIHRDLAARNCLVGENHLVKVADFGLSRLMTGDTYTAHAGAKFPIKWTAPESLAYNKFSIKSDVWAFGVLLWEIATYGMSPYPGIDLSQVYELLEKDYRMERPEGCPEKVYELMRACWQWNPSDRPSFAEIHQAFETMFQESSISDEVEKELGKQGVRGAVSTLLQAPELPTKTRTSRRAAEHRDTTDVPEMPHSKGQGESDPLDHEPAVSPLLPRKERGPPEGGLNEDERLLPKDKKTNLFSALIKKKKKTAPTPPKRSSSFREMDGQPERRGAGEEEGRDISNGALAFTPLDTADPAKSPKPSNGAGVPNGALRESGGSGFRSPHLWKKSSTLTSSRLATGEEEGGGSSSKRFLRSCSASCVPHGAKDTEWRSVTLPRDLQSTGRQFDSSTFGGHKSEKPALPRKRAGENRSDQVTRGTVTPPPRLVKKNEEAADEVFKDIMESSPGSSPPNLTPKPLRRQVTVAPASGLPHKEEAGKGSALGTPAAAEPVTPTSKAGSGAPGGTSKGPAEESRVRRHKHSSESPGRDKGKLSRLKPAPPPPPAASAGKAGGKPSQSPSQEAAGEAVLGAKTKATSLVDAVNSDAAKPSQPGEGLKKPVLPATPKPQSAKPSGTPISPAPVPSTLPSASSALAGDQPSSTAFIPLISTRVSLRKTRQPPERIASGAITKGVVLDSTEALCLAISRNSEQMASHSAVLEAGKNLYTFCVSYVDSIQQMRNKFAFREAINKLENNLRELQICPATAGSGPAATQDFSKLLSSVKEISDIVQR
Experimental: as §1

Ba/F3 TEL-JAK1 = Ba/F3 TEL-JAK1 (Homo sapiens, UniProt P23458); assay: Inhibition of Ba/F3 TEL-JAK1 cell line; assay type: cell-based; conditions: read-out: IC50 (μM) Ba/F3 TEL-JAK1
Sequence of Ba/F3 TEL-JAK1 (P23458 whole entry, looked up, change not shown): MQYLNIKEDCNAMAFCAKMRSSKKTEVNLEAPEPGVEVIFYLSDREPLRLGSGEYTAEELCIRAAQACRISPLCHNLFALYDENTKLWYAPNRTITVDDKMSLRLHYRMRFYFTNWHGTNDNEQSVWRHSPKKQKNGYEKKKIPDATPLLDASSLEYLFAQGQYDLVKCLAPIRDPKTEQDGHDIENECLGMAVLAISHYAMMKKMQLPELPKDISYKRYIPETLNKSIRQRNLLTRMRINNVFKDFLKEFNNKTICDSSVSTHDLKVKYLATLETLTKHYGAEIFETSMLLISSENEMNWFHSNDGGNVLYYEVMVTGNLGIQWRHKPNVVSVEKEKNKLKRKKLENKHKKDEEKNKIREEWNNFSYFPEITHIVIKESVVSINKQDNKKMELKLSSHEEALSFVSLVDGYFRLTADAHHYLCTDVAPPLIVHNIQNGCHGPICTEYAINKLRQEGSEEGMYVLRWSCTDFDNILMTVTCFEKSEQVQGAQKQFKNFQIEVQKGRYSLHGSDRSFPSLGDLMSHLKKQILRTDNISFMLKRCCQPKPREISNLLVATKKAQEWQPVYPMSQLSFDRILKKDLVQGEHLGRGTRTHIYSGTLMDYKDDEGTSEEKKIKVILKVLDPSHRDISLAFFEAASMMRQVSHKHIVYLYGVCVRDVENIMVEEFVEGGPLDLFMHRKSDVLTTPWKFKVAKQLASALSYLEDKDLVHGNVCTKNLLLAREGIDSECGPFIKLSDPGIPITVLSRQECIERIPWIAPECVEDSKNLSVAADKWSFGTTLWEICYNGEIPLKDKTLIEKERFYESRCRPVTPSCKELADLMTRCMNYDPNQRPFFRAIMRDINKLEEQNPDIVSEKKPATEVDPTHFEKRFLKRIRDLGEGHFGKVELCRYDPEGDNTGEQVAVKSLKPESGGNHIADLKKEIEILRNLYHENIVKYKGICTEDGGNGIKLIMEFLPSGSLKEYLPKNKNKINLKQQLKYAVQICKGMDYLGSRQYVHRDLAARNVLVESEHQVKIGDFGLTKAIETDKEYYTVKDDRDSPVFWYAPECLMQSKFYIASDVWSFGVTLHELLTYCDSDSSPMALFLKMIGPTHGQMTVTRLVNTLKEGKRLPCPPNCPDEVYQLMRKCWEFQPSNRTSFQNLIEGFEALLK
Experimental: as §1

Ba/F3 TEL-JAK2 = Ba/F3 TEL-JAK2 (Homo sapiens, UniProt O60674); assay: Inhibition of Ba/F3 TEL-JAK2 cell line; assay type: cell-based; conditions: read-out: IC50 (μM) Ba/F3 TEL-JAK2
Sequence of Ba/F3 TEL-JAK2 (O60674 whole entry, looked up, change not shown): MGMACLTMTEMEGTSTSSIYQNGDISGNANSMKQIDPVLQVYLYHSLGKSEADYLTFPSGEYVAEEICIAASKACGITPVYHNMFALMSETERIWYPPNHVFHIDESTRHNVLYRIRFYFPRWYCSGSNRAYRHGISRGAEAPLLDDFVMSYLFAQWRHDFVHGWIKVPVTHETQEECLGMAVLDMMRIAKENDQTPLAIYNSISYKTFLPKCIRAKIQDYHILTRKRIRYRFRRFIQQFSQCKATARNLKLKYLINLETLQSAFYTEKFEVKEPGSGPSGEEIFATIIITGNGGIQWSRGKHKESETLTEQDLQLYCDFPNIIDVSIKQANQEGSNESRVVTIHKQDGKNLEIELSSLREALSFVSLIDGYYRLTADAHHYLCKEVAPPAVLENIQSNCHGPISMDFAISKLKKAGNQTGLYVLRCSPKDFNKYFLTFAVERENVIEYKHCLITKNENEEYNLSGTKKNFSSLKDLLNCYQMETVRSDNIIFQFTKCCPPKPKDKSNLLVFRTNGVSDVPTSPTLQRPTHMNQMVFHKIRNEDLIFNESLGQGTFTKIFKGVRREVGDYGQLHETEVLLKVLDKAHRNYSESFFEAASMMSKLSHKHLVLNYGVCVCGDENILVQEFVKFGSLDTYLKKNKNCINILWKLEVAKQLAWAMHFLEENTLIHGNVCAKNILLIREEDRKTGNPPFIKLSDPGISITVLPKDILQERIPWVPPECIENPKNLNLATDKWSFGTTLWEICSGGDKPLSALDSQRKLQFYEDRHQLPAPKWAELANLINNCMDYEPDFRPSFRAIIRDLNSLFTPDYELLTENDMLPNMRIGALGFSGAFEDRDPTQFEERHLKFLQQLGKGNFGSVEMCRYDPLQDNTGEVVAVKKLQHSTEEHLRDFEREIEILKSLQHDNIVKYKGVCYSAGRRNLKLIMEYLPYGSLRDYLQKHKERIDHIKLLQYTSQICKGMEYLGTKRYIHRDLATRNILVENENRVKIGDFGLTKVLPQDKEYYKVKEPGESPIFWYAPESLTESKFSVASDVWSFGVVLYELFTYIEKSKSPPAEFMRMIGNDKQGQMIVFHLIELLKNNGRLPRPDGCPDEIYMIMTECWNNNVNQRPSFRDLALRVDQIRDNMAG
Experimental: as §1

Ba/F3 TYK2_E957D = Ba/F3 TYK2_E957D (Homo sapiens (Human), UniProt P29597, E957D); assay: Inhibition of Ba/F3 TYK2_E957D cell line; assay type: cell-based; conditions: read-out: IC50 (μM) Ba/F3 TYK2_E957D
Experimental: as §1

Ba/F3 TEL-JAK3 = Ba/F3 TEL-JAK3 (Homo sapiens, UniProt P52333); assay: Inhibition of Ba/F3 TEL-JAK3 cell line; assay type: cell-based; conditions: read-out: IC50 (μM) Ba/F3 TEL-JAK3
Experimental: as §1

Row | SMILES | Kinase inhibition (% control, 1000 nM compound) ITK (ITK) [% control] | Kinase inhibition (% control, 1000 nM compound) BLK (BLK) [% control] | Kinase inhibition (% control, 1000 nM compound) TXK (TXK) [% control] | Kinase inhibition (% control, 1000 nM compound) TEC (TEC) [% control] | IC50 (Ba/F3 TEL-ABL) [µM] | IC50 (Ba/F3 TEL-JAK1) [µM] | IC50 (Ba/F3 TEL-JAK2) [µM] | IC50 (Ba/F3 TYK2_E957D) [µM] | IC50 (Ba/F3 TEL-JAK3) [µM] | further results
1 | C=CC(=O)Nc1cccc(N(C(=O)NCc2ccccc2)c2cc(Nc3ccc(N4CCN(C)CC4)cc3OC)ncn2)c1 [Compound 3A, N-(3-(3-benzyl-1-(6-((2-methoxy-4-(4-methylpiperazin-1-yl)phenyl)amino)pyrimidin-4-yl)ureido)phenyl)acrylamide] | 100 | 19 | 7.4 | 55 | – | – | – | – | – | EGFR activity (% Control, 1.0 μM drug) Assay 1 Del/T790M ([1]; 1.0 μM drug, Assay 1): 1 % Control; EGFR activity (% Control, 1.0 μM drug) Assay 2 Del/T790M ([1]; 1.0 μM drug, Assay 2): 2 % Control; EGFR activity (% Control, 1.0 μM drug) Assay 1 L858R (EGFR L858R Ba/F3 cells; 1.0 μM drug, Assay 1): 2 % Control; EGFR activity (% Control, 1.0 μM drug) Assay 2 L858R (EGFR L858R Ba/F3 cells; 1.0 μM drug, Assay 2): 4 % Control; EGFR activity (% Control, 1.0 μM drug) Assay 1 KIF5B/Ret_V804M (KIF5B/Ret_V804M): 102 % Control; EGFR activity (% Control, 1.0 μM drug) Assay 1 Del/T790M/L718Q ([2]; Assay 1): 53 % Control; EGFR activity (% Control, 1.0 μM drug) Assay 2 Del/T790M/L718Q ([2]; Assay 2): 86 % Control; EGFR activity (% Control, 1.0 μM drug) Assay 1 Del (EGFR Del Ba/F3 cells; 1.0 μM drug, Assay 1): 2 % Control; EGFR activity (% Control, 1.0 μM drug) Assay 2 Del (EGFR Del Ba/F3 cells; 1.0 μM drug, Assay 2): 1 % Control
2 | C=CC(=O)Nc1cccc(N(C(=O)OCc2ccccc2)c2ccnc(Nc3ccc(N4CCN(C)CC4)cc3OC)n2)c1 [Compound 4A, Benzyl (3-acrylamidophenyl)(2-((2-methoxy-4-(4-methylpiperazin-1-yl)phenyl)amino)pyrimidin-4-yl)carbamate] | 100 | 20 | 27 | 83 | – | – | – | – | – | IC50 ([3]; Assay 1, L858R/T790M, read-out: EGFR Ba/F3 cells IC 50 (nM) Assay 1 L858R/T790M): 7.6 nM; IC50 ([1]; Assay 1, Del/T790M, read-out: EGFR Ba/F3 cells IC 50 (nM) Assay 1 Del/T790M): 17.3 nM; IC50 (EGFR L858R Ba/F3 cells; Assay 1, L858R, read-out: EGFR Ba/F3 cells IC 50 (nM) Assay 1 L858R): 0.5 nM; IC50 [4]: 293 nM; IC50 [5]: 2.92 nM; Microsome Stability Mouse min [6]: 29 min; IC50 (EGFR Del Ba/F3 cells; Assay 1, Del, read-out: EGFR Ba/F3 cells IC 50 (nM) Assay 1 Del): 14.2 nM
3 | C=CC(=O)Nc1cccc(N(C(=O)Nc2ccccc2)c2cc(Nc3ccc(N4CCN(C)CC4)cc3)ncn2)c1 [Compound 25A] | – | – | – | – | – | – | – | – | – | EGFR activity (% Control, 100 nM drug) L858R/T790M [3]: 24 % Control; EGFR activity (% Control, 100 nM drug) Del/T790M [1]: 53 % Control; IC50 (BTK): 0.0312 µM; EGFR activity (% Control, 100 nM drug) L858R (EGFR L858R Ba/F3 cells): 1 % Control; EGFR activity (% Control, 100 nM drug) Del (EGFR Del Ba/F3 cells): 14 % Control
4 | C=CC(=O)Nc1cccc(N(C(=O)NCc2ccccc2)c2cc(Nc3ccc(N4CCN(C)CC4)cc3)ncn2)c1 [Compound 29A] | – | – | – | – | – | – | – | – | – | EGFR activity (% Control, 100 nM drug) L858R/T790M [3]: 13 % Control; EGFR activity (% Control, 100 nM drug) Del/T790M [1]: 6 % Control; IC50 (BTK): 0.0194 µM; EGFR activity (% Control, 100 nM drug) L858R (EGFR L858R Ba/F3 cells): 0 % Control; EGFR activity (% Control, 100 nM drug) Del (EGFR Del Ba/F3 cells): 2 % Control
5 | C=CC(=O)Nc1cc(Nc2nccc(N(C)C(=O)Oc3ccccc3)n2)c(OC)cc1N(C)CCN(C)C [Compound 80A] | 94 | 14 | 12 | 90 | – | – | – | – | – | –
6 | C=CC(=O)Nc1cccc(N(C(=O)OCc2ccccc2)c2ccnc(Nc3cnn(C)c3)n2)c1 [Compound 83A] | 66 | 0.4 | 3.8 | 5.7 | 16.7 | 9 | 17.5 | 2.95 | 0.107 | –
7 | C=CC(=O)Nc1cccc(N(C(=O)OCc2ccccc2)c2ccnc(Nc3cnn(C4CCOCC4)c3)n2)c1 [Compound 84A] | – | – | – | – | 11.3 | 7.41 | 18.1 | 4.17 | 0.139 | –
8 | C=CC(=O)Nc1cccc(N(C(=O)OCc2ccccc2)c2ccnc(Nc3cnn(CCN4CCOCC4)c3)n2)c1 [Compound 85A] | – | – | – | – | 16.1 | 8.86 | 18.3 | 4.37 | 0.189 | –
